# Article PMC6017357, “In Vitro Inhibitory Effects of Synthetic Cannabinoid EAM-2201 on Cytochrome P450 and UDP-Glucuronosyltransferase Enzyme Activities in Human Liver Microsomes” (Molecules : A Journal of Synthetic Chemistry and Natural …, 2018)
# Target: T1, UGT1A1 (Homo sapiens, UniProt P22309)
# T1 construct: ultrapooled human liver microsomes (0.2 mg/mL), 5 mM UDPGA; from tissue; host or cells: ultrapooled human liver microsomes
# T1 sequence (P22309 26-533): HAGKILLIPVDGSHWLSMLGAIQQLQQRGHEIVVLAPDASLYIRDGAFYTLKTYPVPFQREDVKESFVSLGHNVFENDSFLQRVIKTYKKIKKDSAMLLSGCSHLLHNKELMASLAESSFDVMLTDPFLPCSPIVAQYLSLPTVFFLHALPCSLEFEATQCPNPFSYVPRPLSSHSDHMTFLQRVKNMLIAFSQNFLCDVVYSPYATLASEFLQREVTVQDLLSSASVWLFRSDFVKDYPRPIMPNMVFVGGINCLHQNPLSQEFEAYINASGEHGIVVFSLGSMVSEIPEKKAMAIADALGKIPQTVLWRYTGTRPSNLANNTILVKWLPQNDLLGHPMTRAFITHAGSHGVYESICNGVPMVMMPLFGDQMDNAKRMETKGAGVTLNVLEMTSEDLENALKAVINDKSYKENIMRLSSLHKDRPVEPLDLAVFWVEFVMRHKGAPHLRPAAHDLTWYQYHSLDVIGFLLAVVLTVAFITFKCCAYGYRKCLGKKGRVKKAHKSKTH
# Test: UGT1A1-catalyzed SN-38 glucuronidation in human liver microsomes
# Type: in vitro ADME
# Details: at 50 µM
# Experimental: The inhibitory effects of EAM-2201 on UGT1A1, UGT1A3, UGT1A4, UGT1A6, UGT1A9 and UGT2B7 were evaluated using LC-MS/MS and the cocktail of UGT substrates as previously described. Each incubation mixture was prepared in a final volume of 100 µL as follows: ultrapooled human liver microsomes (0.2 mg/mL), 5 mM UDPGA, 10 mM magnesium chloride, alamethicin (25 µg/mL), 50 mM Tris buffer (pH 7.4), various concentrations of EAM-2201 in DMSO (final concentrations of 1–50 µM, 0.5% DMSO) and the UGT enzyme-specific substrates of two cocktail sets (set A: 0.5 µM SN-38, 2 µM chenodeoxycholic acid and 0.5 µM trifluoperazine; set B: 1 µM N-acetylserotonin, 0.2 µM mycophenolic acid and 1 µM naloxone, acetonitrile content, 0.5%). […] Supernatant from sets A and B (50 µL of each) was mixed and aliquots (5 µL) were analyzed by LC-MS/MS. […]
# The metabolites formed from the six UGT cocktail substrates were simultaneously measured using LC-MS/MS [41]. […] Each metabolite was quantified via SRM in the negative ion mode: chenodeoxycholic acid 24-acyl-β-glucuronide, 567.2 > 391.0; mycophenolic acid glucuronide, 495.2 > 318.9; and propofol glucuronide (IS), 353.3 > 177.1; and in the positive ion mode: SN-38 glucuronide, 569.0 > 393.0; trifluoperazine glucuronide, 584.2 > 408.1; N-acetylserotonin-β-D-glucuronide, 395.2 > 219.0; naloxone 3-β-D-glucuronide, 504.0 > 310.0; and meloxicam (IS), 352.0 > 115.1. […]
structure (smiles),measurement,value
"CCc1ccc(C(=O)c2cn(CCCCCF)c3ccccc23)c2ccccc12 [EAM-2201, (4-ethyl-1-naphthalenyl)[1-(5-fluoropentyl)-1H-indol-3-yl]-methanone]",inhibition of UGT1A1-catalyzed SN-38 glucuronidation,negligibly inhibited
